The experiment concerns the target T1, GHS-R (Homo sapiens, UniProt Q92847).
T1 construct: expressed in transfected cells; host or cells: COS-7 cells
Put plainly: GHS-R competition binding assay (Ki of GHS-R antagonizing compounds). The method, then:
One exemplary binding assay is as follows: GHS-R expressing COS-7 cells cultured at a density of 1×10^5 cells per well so that binding is assayed in the range of about 5-8 % binding of the radioactive ligand. For example, the cells can express an endogenous nucleic acid encoding GHS-R or an exogenous nucleic acid encoding GHS-R. Cells transfected with an exogenous nucleic acid encoding GHS-R can be used, e.g., two days, after transfection. Competition binding experiments are performed for 3 hours at 4° C. using 25 pM of ^125I-ghrelin in 0.5 ml of 50 mM HEPES buffer, pH 7.4, supplemented with 1 mM CaCl2, 5 mM MgCl2, and 0.1% (w/v) bovine serum albumin, 40 mg/ml bacitracin. Non-specific binding can be determined as the binding in the presence of […] of unlabeled ghrelin. Cells are washed twice in 0.5 ml of ice-cold buffer and then lysed with 0.5-1 ml of lysis buffer (8 M Urea, 2% NP40 in 3 M acetic acid). After washing and lysis, the bound radioactivity is counted. Assays can be run in duplicate or triplicate, e.g., to provide statistical power.
Values of the dissociation and inhibition constants (Kd and Ki) can be estimated from competition binding experiments using the equation: Kd=IC50-L and Ki=IC50/(1+L/Kd), where L is the concentration of radioactive ligand. Bmax values can be estimated from competition binding experiments using the equation Bmax=B0 IC50/[ligand], where B0 is the specifically bound radioligand.
T1 sequence (Q92847 whole entry, species assumed): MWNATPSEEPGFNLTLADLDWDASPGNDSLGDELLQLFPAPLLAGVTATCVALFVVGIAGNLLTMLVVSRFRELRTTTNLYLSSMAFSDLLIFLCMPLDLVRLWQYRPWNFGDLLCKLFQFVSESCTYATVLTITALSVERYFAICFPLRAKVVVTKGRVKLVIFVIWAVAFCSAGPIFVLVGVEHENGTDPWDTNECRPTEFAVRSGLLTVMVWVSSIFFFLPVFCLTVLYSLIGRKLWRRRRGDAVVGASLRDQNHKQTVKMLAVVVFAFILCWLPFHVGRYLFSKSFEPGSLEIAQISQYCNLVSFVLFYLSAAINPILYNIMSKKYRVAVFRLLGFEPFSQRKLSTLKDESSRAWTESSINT
With `CCN(CC)CCCS(=O)(=O)N[C@H](CCc1ccccc1)C(=O)c1ccc(-c2ccccc2C(N)=O)cc1` [Compound 174, (R)-4′-(2-(3-(diethylamino)propylsulfonamido)-4-phenylbutanoyl)biphenyl-2-carboxamide], the Ki lay within 100 to 1000 nM.

Compound `CCNC(=O)Nc1ccccc1-c1ccc(C(=O)[C@@H](COCc2ccccc2)NS(=O)(=O)CCCN(CC)CC)cc1` [Compound 175, (R)-N-(3-(benzyloxy)-1-(2′-(3-ethylureido)biphenyl-4-yl)-1-oxopropan-2-yl)-3-(diethylamino)propane-1-sulfonamide] had a Ki of 100 to 1000 nM. Then `CCN(CC)CCCS(=O)(=O)N[C@H](COCc1ccccc1)C(=O)c1ccc(-c2ccccc2NC(=O)NC)cc1` [Compound 176, (R)-N-(3-(benzyloxy)-1-(2′-(3-methylureido)biphenyl-4-yl)-1-oxopropan-2-yl)-3-(diethylamino)propane-1-sulfonamide], with 100 to 1000 nM. Consider `CCN(CC)CCCS(=O)(=O)N[C@H](COCc1ccccc1)C(=O)c1ccc(-c2ccccc2C(N)=O)cc1` [Compound 177, (R)-4′-[3-Benzyloxy-2-(3-diethylamino-propane-1-sulfonylamino)-propionyl]-biphenyl-2-carboxylic acid amide], for which the Ki lay in the range of 100 to 1000 nM. With `CCN(CC)CCCS(=O)(=O)N[C@H](COCc1ccccc1)C(=O)c1ccc(-c2ccccc2C#N)cc1` [Compound 178, (R)-N-(3-(benzyloxy)-1-(2′-cyanobiphenyl-4-yl)-1-oxopropan-2-yl)-3-(diethylamino)propane-1-sulfonamide], the Ki lay in the range of 100 to 1000 nM. Next, `CCN(CC)CCCS(=O)(=O)N[C@H](CCc1ccccc1)C(=O)NCc1ccc(-c2ccccc2C(=O)NC)cc1` [Compound 179, (R)-4′-{[2-(3-Diethylamino-propane-1-sulfonylamino)-4-phenyl-butyrylamino]-methyl}-biphenyl-2-carboxylic acid methylamide]: 100 to 1000 nM; `CCN(CC)CCCS(=O)(=O)N[C@H](CCc1ccccc1)C(=O)NCc1ccc(-c2ccccc2CN)cc1` [Compound 180, (R)-N-((2′-(aminomethyl)biphenyl-4-yl)methyl)-2-(3-(diethylamino)propylsulfonamido)-4-phenylbutanamide]: 100 to 1000 nM. Then `CCN(CC)CCCS(=O)(=O)N[C@H](CCc1ccccc1)C(=O)NCc1ccc(-c2ccccc2CC(=O)NC)cc1` [Compound 181, (R)-2-(3-(diethylamino)propylsulfonamido)-N-((2′-(2-(methylamino)-2-oxoethyl)biphenyl-4-yl)methyl)-4-phenylbutanamide], with 100 to 1000 nM; and `CCN(CC)CCCS(=O)(=O)N[C@H](CCc1ccccc1)C(=O)NCc1ccc(-c2ccccc2CNC(=O)OC(C)(C)C)cc1` [Compound 182, (R)-(4′-{[2-(3-Diethylamino-propane-1-sulfonylamino)-4-phenyl-butyrylamino]-methyl}-biphenyl-2-ylmethyl)-carbamic acid tert-butyl ester], with 100 to 1000 nM. `CCN(CC)CCCS(=O)(=O)N[C@H](CCc1ccccc1)C(=O)c1ccc(-c2ccccc2C(=O)O)cc1` [Compound 183, (R)-4′-(2-(3-(diethylamino)propylsulfonamido)-4-phenylbutanoyl)biphenyl-2-carboxylic acid] gave a Ki of 100 to 1000 nM. `CCOC(=O)c1ccccc1-c1ccc(C(=O)[C@@H](CCc2ccccc2)NS(=O)(=O)CCCN(CC)CC)cc1` [Compound 184, (R)-ethyl 4′-(2-(3-(diethylamino)propylsulfonamido)-4-phenylbutanoyl)biphenyl-2-carboxylate] had a Ki of over 1000 nM. Then `CCN(CC)CCCS(=O)(=O)N[C@H](CCc1ccccc1)C(=O)c1ccc(-c2ccccc2CCNC(=O)NC)cc1` [Compound 185, (R)-3-(diethylamino)-N-(1-(2′-(2-(3-methylureido)ethyl)biphenyl-4-yl)-1-oxo-4-phenylbutan-2-yl)propane-1-sulfonamide], with under 100 nM. For the compound `CCN(CC)CCCS(=O)(=O)N[C@H](CCc1ccccc1)C(=O)c1ccc(-c2ccccc2C(=O)NC)cc1` [Compound 186, (R)-4′-(2-(3-(diethylamino)propylsulfonamido)-4-phenylbutanoyl)-N-methylbiphenyl-2-carboxamide], the Ki lay within 100 to 1000 nM. Next, `CCN(CC)CCCS(=O)(=O)N[C@H](CCc1ccccc1)C(=O)NCc1ccc(-c2ccccc2CNC(=O)NC)cc1` [Compound 187, (R)-2-(3-(diethylamino)propylsulfonamido)-N-((2′-((3-methylureido)methyl)biphenyl-4-yl)methyl)-4-phenylbutanamide]: 100 to 1000 nM; `CCN(CC)CCCS(=O)(=O)N[C@H](CCc1ccccc1)C(=O)NCc1ccc(-c2ccccc2CNC(=O)NCCO)cc1` [Compound 188, (R)-2-(3-(diethylamino)propylsulfonamido)-N-((2′-((3-(2-hydroxyethyl)ureido)methyl)biphenyl-4-yl)methyl)-4-phenylbutanamide]: under 100 nM. Then `CCN(CC)CCCS(=O)(=O)N[C@H](CCc1ccccc1)C(=O)NCc1ccc(-c2ccccc2C(N)=O)cc1` [Compound 189, (R)-4′-{[2-(3-Diethylamino-propane-1-sulfonylamino)-4-phenyl-butyrylamino]-methyl}-biphenyl-2-carboxylic acid amide], with under 100 nM; and `CCN(CC)CCCS(=O)(=O)N[C@H](CCc1ccccc1)C(=O)c1ccc(-c2ccccc2CNC(=O)OC(C)(C)C)cc1` [Compound 190, (R)-tert-butyl (4′-(2-(3-(diethylamino)propylsulfonamido)-4-phenylbutanoyl)biphenyl-2-yl)methylcarbamate], with 100 to 1000 nM. For `CCN(CC)CCCS(=O)(=O)N[C@H](CCc1ccccc1)C(=O)c1ccc(-c2ccccc2CN)cc1` [Compound 191, (R)-N-(1-(2′-(aminomethyl)biphenyl-4-yl)-1-oxo-4-phenylbutan-2-yl)-3-(diethylamino)propane-1-sulfonamide], the Ki was in the range of 100 to 1000 nM. Then `CCN(CC)CCCS(=O)(=O)N[C@H](CCc1ccccc1)C(=O)c1ccc(-c2ccccc2CNC(C)=O)cc1` [Compound 192, (R)-N-((4′-(2-(3-(diethylamino)propylsulfonamido)-4-phenylbutanoyl)biphenyl-2-yl)methyl)acetamide], with under 100 nM; and `CCNC(=O)NCc1ccccc1-c1ccc(CNC(=O)[C@@H](CCc2ccccc2)NS(=O)(=O)CCCN(CC)CC)cc1` [Compound 193, (R)-2-(3-(diethylamino)propylsulfonamido)-N-((2′-((3-ethylureido)methyl)biphenyl-4-yl)methyl)-4-phenylbutanamide], with under 100 nM. Next, `CCN(CC)CCS(=O)(=O)N[C@H](CCc1ccccc1)C(=O)c1ccc(-c2ccccc2CNC(=O)OC(C)(C)C)cc1` [Compound 194, (R)-tert-butyl (4′-(2-(2-(diethylamino)ethylsulfonamido)-4-phenylbutanoyl)biphenyl-2-yl)methylcarbamate]: 100 to 1000 nM. In the case of `C=C(C)C(=O)OCCNC(=O)NCc1ccccc1-c1ccc(C(=O)[C@@H](CCc2ccccc2)NS(=O)(=O)CCCN(CC)CC)cc1` [Compound 195, (R)-2-(3-((4′-(2-(3-(diethylamino)propylsulfonamido)-4-phenylbutanoyl)biphenyl-2-yl)methyl)ureido)ethyl methacrylate], the Ki is under 100 nM. Then `CCN(CC)CCCS(=O)(=O)N[C@H](CCc1ccccc1)C(=O)c1ccc(-c2ccccc2CNC(=O)NC)cc1` [Compound 196, (R)-3-(diethylamino)-N-(1-(2′-((3-methylureido)methyl)biphenyl-4-yl)-1-oxo-4-phenylbutan-2-yl)propane-1-sulfonamide], with under 100 nM; and `CCNC(=O)NCc1ccccc1-c1ccc(C(=O)[C@@H](CCc2ccccc2)NS(=O)(=O)CCCN(CC)CC)cc1` [Compound 197, (R)-3-(diethylamino)-N-(1-(2′-((3-ethylureido)methyl)biphenyl-4-yl)-1-oxo-4-phenylbutan-2-yl)propane-1-sulfonamide], with under 100 nM. `CCN(CC)CCCS(=O)(=O)N[C@H](CCc1ccccc1)C(=O)c1ccc(-c2ccccc2CNC(=O)NCCO)cc1` [Compound 198, (R)-3-(diethylamino)-N-(1-(2′-((3-(2-hydroxyethyl)ureido)methyl)biphenyl-4-yl)-1-oxo-4-phenylbutan-2-yl)propane-1-sulfonamide] had a Ki of under 100 nM.

In turn, `CCN(CC)CCS(=O)(=O)N[C@@H](COCc1ccccc1)C(=O)N1CCC2(CC1)CN(S(C)(=O)=O)c1ccccc12` [Compound 199, (S)-N-(3-(benzyloxy)-1-(1-(methylsulfonyl)spiro[indoline-3,4′-piperidine]-1′-yl)-1-oxopropan-2-yl)-2-(diethylamino)ethanesulfonamide] registered a Ki of under 100 nM. Next, `CCN(CC)CCCS(=O)(=O)N[C@H](CCc1ccccc1)C(=O)NCc1ccc(-c2ccccc2NC(=O)NC)cc1` [Compound 200, (R)-2-(3-(diethylamino)propylsulfonamido)-N-((2′-(3-methylureido)biphenyl-4-yl)methyl)-4-phenylbutanamide]: 100 to 1000 nM.

Values taken from patent publication US20050261332A1, “Sulfonamides and uses thereof” (priority 2004, published 2005).
